# Laboratory results reported in US20240132467A1, “BENZIMIDAZOLE DERIVATIVES FOR TREATING RESPIRATORY DISEASE” (TMEM16A Limited, priority 2020, published 2024).
# Biological target: T1, human TMEM16A (TMEM16Aabc variant) (Homo sapiens, UniProt Q5XXA6, DEL476-501)
# T1 sequence (Q5XXA6 with tags, fused parts or gaps isoform Q5XXA6-5 DEL539-564): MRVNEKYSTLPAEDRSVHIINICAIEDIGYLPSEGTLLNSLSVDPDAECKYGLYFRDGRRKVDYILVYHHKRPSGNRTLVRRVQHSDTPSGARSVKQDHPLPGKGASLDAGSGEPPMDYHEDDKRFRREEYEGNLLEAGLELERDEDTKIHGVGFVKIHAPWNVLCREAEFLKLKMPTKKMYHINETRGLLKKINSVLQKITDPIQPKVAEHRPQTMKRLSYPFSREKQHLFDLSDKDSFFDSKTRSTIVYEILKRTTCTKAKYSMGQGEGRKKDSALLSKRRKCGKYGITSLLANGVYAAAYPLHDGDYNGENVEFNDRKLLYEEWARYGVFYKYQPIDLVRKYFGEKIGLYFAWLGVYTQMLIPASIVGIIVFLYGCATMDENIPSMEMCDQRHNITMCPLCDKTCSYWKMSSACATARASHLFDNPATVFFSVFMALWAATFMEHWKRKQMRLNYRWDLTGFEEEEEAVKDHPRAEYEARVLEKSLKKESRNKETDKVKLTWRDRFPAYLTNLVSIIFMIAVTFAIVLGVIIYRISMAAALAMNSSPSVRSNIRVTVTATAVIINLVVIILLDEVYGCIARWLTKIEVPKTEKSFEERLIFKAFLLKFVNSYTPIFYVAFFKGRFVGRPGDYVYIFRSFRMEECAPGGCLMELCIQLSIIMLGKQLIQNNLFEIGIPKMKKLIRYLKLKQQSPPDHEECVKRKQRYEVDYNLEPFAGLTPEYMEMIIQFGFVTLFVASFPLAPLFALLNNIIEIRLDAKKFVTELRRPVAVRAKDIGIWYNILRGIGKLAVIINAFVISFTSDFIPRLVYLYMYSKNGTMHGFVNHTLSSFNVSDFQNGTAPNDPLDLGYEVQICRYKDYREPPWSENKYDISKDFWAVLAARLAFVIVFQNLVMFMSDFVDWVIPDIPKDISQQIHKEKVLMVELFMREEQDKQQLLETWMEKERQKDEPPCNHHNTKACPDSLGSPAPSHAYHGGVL
# Assay: Automated whole-cell patch clamp (Qpatch) TMEM16A potentiator assay in FRT cells stably expressing human TMEM16A
# Type: cell-based
# Conditions: for activation at 3.33 µM: 3.33 μM test compound, percentage increase of baseline TMEM16A current at +70 mV, intracellular calcium at EC20, read-out: % Potentiation @ 3.33 μM Avg; for EC50: cumulative concentration response, 5 min per concentration, whole-cell patch clamp
# Description: Automated whole-cell patch clamp assay to detect TMEM16A activity in recombinant cells Cell culture and preparation
# Fisher rat thyroid (FRT) cells stably expressing human TMEM16A (TMEM16Aabc variant; Dr Luis Galietta, Insituto Giannina, Italy) were cultured in T-75 flasks in Hams F-12 media with Coon's modification (Sigma) supplemented with 10% (v/v) foetal bovine serum, penicillin-streptomycin (10,000 U/mL/10000 μg/mL), G-418 (750μg/mL), L-glutamine (2 mM) and sodium bicarbonate solution (7.5% v/v). At —90% confluence cells were harvested for experiments by detachment with a 2:1 (v/v) mixture of Detachin (BMS Biotechnology) and 0.25% (w/v) trypsin-EDTA. Cells were diluted to a density of 3.5-4.5×10^6 cells/mL with media consisting of CHO-S-SFM II (Sigma), 25 mM HEPES (Sigma) and Soy bean trypsin inhibitor (Sigma).
# Whole-Cell Patch Clamp Recording
# FRT-TMEM16A cells were whole-cell patch clamped using an automated planar patch clamp system (Qpatch, Sophion). Briefly, once high resistance (GOhm) seals were established between the cells and the planar recording array the patch was ruptured using suction pulses to establish the whole-cell recording configuration of the patch clamp technique. The assay employed the following solutions (all reagents Sigma):
# Intracellular solution (mM): N-methyl-D-glucamine 130, CaCl2 18.2, MgCl2 1, HEPES 10, EGTA 10, BAPTA 20, Mg-ATP 2, pH 7.25, 325mOsm with sucrose.
# Extracellular solution (mM): N-methyl-D-glucamine 130, CaCl2 2, MgCl2 1, HEPES 10, pH 7.3, 320 mOsm with sucrose.
# The intracellular solution buffers intracellular calcium at levels required to give —20% activation of the maximal TMEM16A mediated current (EC20 for calcium ions). Cells were voltage clamped at a holding potential of -70mV and a combined voltage step (to +70 mV)/ramp (−90 my to +90 mV) was applied at 0.05 Hz. After a period of current stabilisation test compounds, solubilised in 100% (v/v) DMSO and subsequently diluted into extracellular solution, were applied to generate a cumulative concentration response curve. Each concentration of test compound was incubated for 5 minutes before addition of the next concentration. After the final concentration was tested a supramaximal concentration of either a known active positive modulator or the TMEM16A inhibitor, CaCCinhA01 (Del La Fuente et al, 2008) was added to define the upper and lower limits of the assay.
# Compound activity was quantified by measuring the increase in current upon compound addition and expressing this as a percentage increase of baseline TMEM16A current level. Percentage increases in current were determined for each concentration and the data plotted as a function of concentration using either the Qpatch software or Graphpad Prism v6.05 providing the concentration which gave 50% of its maximal effect (EC50) and maximum efficacy (percentage of baseline increase).
# In FIG. 1, IBL equals baseline current, km equals the peak current during test compound concentration 1 incubation period and so on.
# Peak TMEM16A current at +70mV was plotted as a function of time over the assay period. Baseline current (IBL) was measured after a period of stabilisation. The increase in current for each compound addition was determined by taking the peak current during the incubation period and subtracting the current from the previous recording period and then expressing this as a percentage of the baseline current. For test compound concentration 1 in FIG. 1 this is:
# For each additional concentration tested the increase in current was determined by subtracting the current from the previous incubation period and normalising the baseline value—for test concentration 2 in FIG. 1 this is:
# The values for each test concentration were plotted as a cumulative function of concentration e.g. for test concentration two this would be the sum of the peak changes measured during concentration one plus concentration two.
smiles,measurement,value
"O=C(CC1CCCCC1)Nc1ccc2[nH]c(Cc3ccccc3)nc2c1 [Example 1.1, N-(2-Benzyl-1H-benzimidazol-5-yl)-2-cyclohexyl-acetamide]",activation at 3.33 µM,127%
same,EC50,250 nM
"O=C(NCC1CCCCC1)c1ccc2[nH]c(Cc3ccccc3)nc2c1 [Example 1.2, 2-Benzyl-N-(cyclohexylmethyl)-1H-benzimidazole-5-carboxamide]",activation at 3.33 µM,111%
same,EC50,225 nM
"O=C(NCC12CC3CC(CC(C3)C1)C2)c1ccc2[nH]c(Cc3ccccc3)nc2c1 [Example 1.2.1, N-(1-Adamantylmethyl)-2-benzyl-1H-benzimidazole-5-carboxamide]",activation at 3.33 µM,146%
same,EC50,441 nM
"CC1(CNC(=O)c2ccc3[nH]c(Cc4ccccc4)nc3c2)CCCC1 [Example 1.2.2, 2-Benzyl-N-I(1-methylcyclopentyl)methylj-1H-benzimidazole-5-carboxamide]",activation at 3.33 µM,144%
same,EC50,203 nM
"C[C@@H](NC(=O)c1ccc2[nH]c(Cc3ccccc3)nc2c1)C1CCCCC1 [Example 1.2.3, 2-Benzyl-N-[(1R)-1-cyclohexylethyl]-1H-benzimidazole-5-carboxamide]",activation at 3.33 µM,153%
same,EC50,792 nM
"CCC(C)(C)c1nc2ccc(C(=O)NCC3CCCCCC3)cc2[nH]1 [Example 1.3, N-(Cycloheptylmethyl)-2-(1,1-dimethylpropyl)-3H-benzimidazole-5-carboxamide]",activation at 3.33 µM,78.5%
same,EC50,563 nM
"O=C(NCC1CCCCCC1)c1ccc2[nH]c(CC3(O)CCCCC3)nc2c1 [Example 1.3.1, N-(Cycloheptylmethyl)-2-[(1-hydroxycyclohexyl)methyl]-1H-benzimidazole-5-carboxamide]",activation at 3.33 µM,135%
same,EC50,425 nM
"O=C(NCC1CCCCCC1)c1ccc2[nH]c(C(CO)c3ccccc3)nc2c1 (stereo not drawn) [Example 1.3.2, N-(Cycloheptylmethyl)-2-(2-hydroxy-1-phenyl-ethyl)-1H-benzimidazole-5-carboxamide]",activation at 3.33 µM,92.9%
same,EC50,581 nM
"O=C(NCC1CCCCC1)c1ccc2nc(Cc3cccc(O)c3)[nH]c2c1 [Example 1.4, N-(Cyclohexylmethyl)-2-[(3-hydroxyphenyl)methyl]-3H-benzimidazole-5-carboxamide]",activation at 3.33 µM,81.3%
same,EC50,384 nM
"O=C(CC12CC3CC(CC(C3)C1)C2)Nc1ccc2[nH]c(Cc3cccc(O)c3)nc2c1 [Example 1.5, 2-(1-Adamantyl)-N-12-[(3-hydroxyphenyl)methyl]-1H-benzimidazol-5-yljacetamide]",activation at 3.33 µM,162%
same,EC50,1080 nM
"CC1(CC(=O)Nc2ccc3[nH]c(Cc4cccc(O)c4)nc3c2)CCCCC1 [Example 1.5.1, N-[2-[(3-hydroxyphenyl)methyl]-1H-benzimidazol-5-yl]-2-(1-methylcyclohexyl) acetamide]",activation at 3.33 µM,105%
same,EC50,222 nM
"O=C(CC1CCCCCC1)Nc1ccc2[nH]c(Cc3cccc(O)c3)nc2c1 [Example 1.5.2, 2-Cycloheptyl-N-[2-[(3-hydroxyphenyl)methyl]-1H-benzimidazol-5-yl]acetamide]",activation at 3.33 µM,136%
same,EC50,227 nM
"O=C(CC1CCCCC1)Nc1ccc2[nH]c(Cc3cccc(O)c3)nc2c1 [Example 1.5.3, 2-Cyclohexyl-N-12-[(3-hydroxyphenyl)methyl]-1H-benzimidazol-5-yljacetamide]",activation at 3.33 µM,93.1%
same,EC50,566 nM
"O=C(CC12CC3CC(CC(C3)C1)C2)Nc1ccc2[nH]c(Cc3ccccc3)nc2c1 [Example 1.5.4, 2-(1-Adamantyl)-N-(2-benzyl-1H-benzimidazol-5-yl)acetamide]",activation at 3.33 µM,219%
same,EC50,834 nM
O=C(CC1(O)C2CC3CC(C2)CC1C3)Nc1ccc2[nH]c(Cc3ccccc3)nc2c1 (stereo not drawn) [Example 1.6],activation at 3.33 µM,83.9%
same,EC50,231 nM
"COc1cccc(Cc2nc3cc(NC(=O)CC4C5CC6CC(C5)CC4C6)ccc3[nH]2)c1 (stereo not drawn) [Example 1.7, 2-(2-Adamantyl)-N-12-[(3-methoxyphenyl)methyl]-1H-benzimidazol-5-yljacetamide]",activation at 3.33 µM,136%
same,EC50,587 nM
"C[C@@H](c1ccccc1)c1nc2cc(NC(=O)CC3C4CC5CC(C4)CC3C5)ccc2[nH]1 (stereo partly drawn) [Example 1.7.1, 2-(2-Adamantyl)-N[2-[(1 S)-1-phenylethyl]-1H-benzimidazol-5-yl]acetamide]",activation at 3.33 µM,157%
same,EC50,273 nM
"C[C@H](c1ccccc1)c1nc2cc(NC(=O)CC3C4CC5CC(C4)CC3C5)ccc2[nH]1 (stereo partly drawn) [Example 1.7.2, 2-(2-Adamantyl)-N[2-[(1R)-1-phenylethyl]-1H-benzimidazol-5-yl]acetamide]",activation at 3.33 µM,143%
same,EC50,294 nM
"CC(C)(C)OC(=O)NCc1nc2cc(NC(=O)CC34CC5CC(CC(C5)C3)C4)ccc2[nH]1 [Example 1.7.3, tert-Butyl N-[[5-[[2-(1-adamantyl)acetyl]amino]-1H-benzimidazol-2-yl]methyl]carbamate]",activation at 3.33 µM,114%
same,EC50,1120 nM
"COc1ncccc1Cc1nc2cc(NC(=O)CC34CC5CC(CC(C5)C3)C4)ccc2[nH]1 [Example 1.7.4, 2-(1-Adamantyl)-N-12-[(2-methoxy-3-pyridyl)methyl]-1H-benzimidazol-5-yljacetamide]",activation at 3.33 µM,148%
same,EC50,1310 nM
"O=C(CC1C2CC3CC(C2)CC1C3)Nc1ccc2[nH]c(Cc3cccc(O)c3)nc2c1 (stereo not drawn) [Example 1.8, 2-(2-Adamantyl)-N-12-[(3-hydroxyphenyl)methyl]-1H-benzimidazol-5-yljacetamide]",activation at 3.33 µM,126%
same,EC50,260 nM
"CC(C)(C)c1nc2cc(C(=O)NCc3cc(Cl)ccc3O)ccc2[nH]1 [Example 1.9, 2-tert-Butyl-N-[(5-chloro-2-hydroxy-phenyl)methyl]-1H-benzimidazole-5-carboxamide]",activation at 3.33 µM,52.1%
"CC(C)(C)OC(=O)NCc1nc2cc(C(=O)NCC3CCCCCC3)ccc2[nH]1 [Example 1.10, tert-Butyl N-[[5-(cycloheptylmethylcarbamoyl)-1H-benzimidazol-2-yl]methyl] carbamate]",activation at 3.33 µM,110%
same,EC50,892 nM
